In paper PMC8154557 (Journal of Medicinal Chemistry, 2021):
pIC50: −log10 of the molar value.

Tests used:
Stx1B = Stx1B (Shigella dysenteriae, UniProt Q7BQ98); test: biochemical; type: binding, Escherichia coli
T84 cells [1] = test: TEER measurement of epithelial integrity; details: 10%, positive control, 24 h
T84 cells [2] = test: Viability MTT assay; details: 10%, positive control, 24 h

Stx1B, sequence (Q7BQ98 21-89 limits assumed): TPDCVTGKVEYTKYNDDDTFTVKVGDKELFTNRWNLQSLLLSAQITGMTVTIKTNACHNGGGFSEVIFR

| Structure (SMILES) | rel. pot. per sugar (Stx1B) | rel.pot. (Stx1B) | also measured |
| --- | --- | --- | --- |
| OC[C@H]1O[C@@H](O[C@H]2[C@H](O)[C@@H](O)C(O)O[C@@H]2CO)[C@H](O)[C@@H](O)[C@H]1O (mixture of isomers) [Lactose, reference compound] | – | – | inhibition of the toxin (in words) (Stx1B): did not show any activity |
| [N-]=[N+]=N[C@@H]1O[C@H](CO)[C@H](O[C@H]2O[C@H](CO)[C@H](O)[C@H](O)[C@H]2O)[C@H](O)[C@H]1O [Compound 1e] | 1 | – | – |
| O=C(O)c1cc(OCc2cn([C@@H]3O[C@H](CO)[C@H](O[C@H]4O[C@H](CO)[C@H](O)[C@H](O)[C@H]4O)[C@H](O)[C@H]3O)nn2)cc(OCc2cn([C@@H]3O[C@H](CO)[C@H](O[C@H]4O[C@H](CO)[C@H](O)[C@H](O)[C@H]4O)[C@H](O)[C@H]3O)nn2)c1 [Compound 3] | 2.3 | 4.6 | pIC50 (Stx1B; IC50): 3.00 |
| O=C(NCCOc1cc(OCCNC(=O)OCc2cn([C@@H]3O[C@H](CO)[C@H](O[C@H]4O[C@H](CO)[C@H](O)[C@H](O)[C@H]4O)[C@H](O)[C@H]3O)nn2)cc(C(=O)O)c1)OCc1cn([C@@H]2O[C@H](CO)[C@H](O[C@H]3O[C@H](CO)[C@H](O)[C@H](O)[C@H]3O)[C@H](O)[C@H]2O)nn1 [Compound 4] | 2 | 4 | – |
| O=C(O)c1cc(OCCNC(=O)c2cc(OCc3cn([C@@H]4O[C@H](CO)[C@H](O[C@H]5O[C@H](CO)[C@H](O)[C@H](O)[C@H]5O)[C@H](O)[C@H]4O)nn3)cc(OCc3cn([C@@H]4O[C@H](CO)[C@H](O[C@H]5O[C@H](CO)[C@H](O)[C@H](O)[C@H]5O)[C@H](O)[C@H]4O)nn3)c2)cc(OCCNC(=O)c2cc(OCc3cn([C@@H]4O[C@H](CO)[C@H](O[C@H]5O[C@H](CO)[C@H](O)[C@H](O)[C@H]5O)[C@H](O)[C@H]4O)nn3)cc(OCc3cn([C@@H]4O[C@H](CO)[C@H](O[C@H]5O[C@H](CO)[C@H](O)[C@H](O)[C@H]5O)[C@H](O)[C@H]4O)nn3)c2)c1 [Compound 5] | 62.5 | 250 | – |
| O=C(NCCCCCCCCCCCCNC(=O)c1cc(OCc2cn([C@@H]3O[C@H](CO)[C@H](O[C@H]4O[C@H](CO)[C@H](O)[C@H](O)[C@H]4O)[C@H](O)[C@H]3O)nn2)cc(OCc2cn([C@@H]3O[C@H](CO)[C@H](O[C@H]4O[C@H](CO)[C@H](O)[C@H](O)[C@H]4O)[C@H](O)[C@H]3O)nn2)c1)c1cc(OCc2cn([C@@H]3O[C@H](CO)[C@H](O[C@H]4O[C@H](CO)[C@H](O)[C@H](O)[C@H]4O)[C@H](O)[C@H]3O)nn2)cc(OCc2cn([C@@H]3O[C@H](CO)[C@H](O[C@H]4O[C@H](CO)[C@H](O)[C@H](O)[C@H]4O)[C@H](O)[C@H]3O)nn2)c1 [Compound 6] | 92 | 367 | – |
| CCO [ethanol] | – | – | transepithelial electrical resistance (TEER) values (T84 cells [1]): strongly decreased; T84 cell viability (MTT) (T84 cells [2]): significantly reduced |
